Data as given in PMC8246065 (The EMBO Journal, 2021).
Where two headings read alike, the source gives them in different places.

Legend:
NOD1 = biological target: T1, NOD1 (Homo sapiens, UniProt Q9Y239); test: Microscale thermophoresis (MST) binding to purified NOD1-GFP
T1 sequence (Q9Y239 1-953): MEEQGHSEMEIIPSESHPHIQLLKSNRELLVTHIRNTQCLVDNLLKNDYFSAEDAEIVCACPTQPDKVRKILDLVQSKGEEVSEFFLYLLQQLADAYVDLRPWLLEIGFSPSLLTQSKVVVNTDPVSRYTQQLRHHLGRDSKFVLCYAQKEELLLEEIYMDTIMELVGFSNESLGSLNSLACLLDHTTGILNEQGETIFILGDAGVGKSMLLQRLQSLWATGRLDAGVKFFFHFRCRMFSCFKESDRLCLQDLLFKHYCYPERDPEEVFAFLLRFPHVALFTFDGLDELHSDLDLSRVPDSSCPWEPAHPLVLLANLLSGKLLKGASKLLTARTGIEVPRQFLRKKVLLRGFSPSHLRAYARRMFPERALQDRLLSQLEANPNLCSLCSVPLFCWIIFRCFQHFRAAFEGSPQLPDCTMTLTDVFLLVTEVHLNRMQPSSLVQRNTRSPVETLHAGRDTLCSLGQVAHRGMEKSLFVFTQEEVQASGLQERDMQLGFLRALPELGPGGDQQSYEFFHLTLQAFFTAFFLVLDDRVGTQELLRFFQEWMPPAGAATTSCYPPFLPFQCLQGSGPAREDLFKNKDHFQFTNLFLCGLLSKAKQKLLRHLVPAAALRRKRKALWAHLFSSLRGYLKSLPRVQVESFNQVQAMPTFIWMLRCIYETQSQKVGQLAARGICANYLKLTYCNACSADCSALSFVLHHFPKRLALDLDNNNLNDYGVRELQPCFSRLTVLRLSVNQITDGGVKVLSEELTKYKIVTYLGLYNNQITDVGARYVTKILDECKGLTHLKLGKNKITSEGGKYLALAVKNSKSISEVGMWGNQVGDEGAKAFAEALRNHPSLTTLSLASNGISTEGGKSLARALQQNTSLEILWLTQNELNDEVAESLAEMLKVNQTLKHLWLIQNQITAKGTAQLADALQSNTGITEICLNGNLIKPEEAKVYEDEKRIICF
Procedure: The lysates were incubated with 2 ml GFP‐Trap agarose at 4°C for 4 h. The agarose was collected with Poly‐Prep columns by gravity flow. […] To remove heat shock proteins, columns were further washed with 50 ml wash buffer III (50 mM Tris–HCl, pH 7.5, 150 mM NaCl, 5 mM MgCl2+, 1 mM ATP). To elute the proteins, the agarose was mixed with 2 ml elution buffer (100 mM Glycine, pH 2.5) for 1 min and the eluted proteins were immediately neutralized with 0.2 ml of 1 M Tris, pH 10.5.

NOD1 and NOD2 = test: Immunoprecipitation with lipid-coated beads; assay type: binding, human; details: HeLa NOD1-GFP / NOD2-GFP lysates, room temperature 2 h
Procedure: (§1) HeLa NOD1 or NOD2 cells were grown overnight and afterward treated with doxycycline overnight to induce NOD1 or NOD2 expression. Cells of one 10‐cm dish were lysed with 500 µl of lysis buffer (25 mM Tris–HCl, pH 7.5, 150 mM NaCl, 1 mM EDTA, 1% NP‐40, and 5% glycerol) supplemented with protease inhibitors (Roche, 05892791001) on ice for 20 min. Lysates were centrifuged at 16,000 × g at 4°C for 10 min, and supernatants were mixed with GFP‐Trap agarose (ChromoTek GmbH, gta‐20) overnight at 4°C. Afterward, agaroses were washed twice with PBS and boiled with sample buffer for SDS–PAGE. For lipid‐coated beads IP, lipid‐coated beads were incubated with supernatants for 2 h at room temperature and then washed with lysis buffer for three times and boiled with sample buffer for SDS–PAGE.

NOD1/2-RIP2 interaction = test: GFP immunoprecipitation of NOD1/2 and Western blot for RIP2; assay type: cell-based, human; details: S1P 20 µM with digitonin, 1 h
Procedure: as §1

NOD1∆LRR = biological target: T2, NOD1∆LRR (Homo sapiens, UniProt Q9Y239); test: MST with cell lysates expressing NOD1 mutants; assay type: binding; details: Fig EV5D
T2 sequence (Q9Y239 1-531 limits assumed): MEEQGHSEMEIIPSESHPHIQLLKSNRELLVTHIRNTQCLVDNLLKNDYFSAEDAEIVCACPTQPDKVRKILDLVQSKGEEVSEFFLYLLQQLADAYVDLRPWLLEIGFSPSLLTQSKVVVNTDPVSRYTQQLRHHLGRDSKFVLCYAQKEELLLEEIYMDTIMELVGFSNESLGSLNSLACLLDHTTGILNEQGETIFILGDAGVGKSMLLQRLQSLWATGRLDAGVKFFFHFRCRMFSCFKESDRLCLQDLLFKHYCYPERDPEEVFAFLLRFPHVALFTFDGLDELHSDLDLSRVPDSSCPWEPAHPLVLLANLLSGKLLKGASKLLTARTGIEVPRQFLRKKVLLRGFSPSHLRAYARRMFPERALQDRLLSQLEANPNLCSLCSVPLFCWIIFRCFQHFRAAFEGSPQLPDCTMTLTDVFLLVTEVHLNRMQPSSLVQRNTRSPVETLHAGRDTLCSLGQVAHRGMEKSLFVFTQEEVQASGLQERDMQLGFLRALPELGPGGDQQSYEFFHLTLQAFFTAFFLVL
Procedure: (§2) Binding of NOD1, NOD2, GFP, or NLRP3‐GFP to different ligands was measured by microscale thermophoresis (MST). 20 nM GFP or GFP‐tagged proteins in MST buffer (PBS pH 7.4, containing 0.5% NP‐40 and 10 mM DTT) was incubated with different concentrations of ligands. Immediately, samples were loaded into standard glass capillaries (NanoTemper) and thermophoresis analysis was performed on a NanoTemper Monolith NT.115 instrument (40% LED, 80% MST power) at 22°C. A laser on‐time of 30 s and a laser off‐time of 5 s were used. The experiment was performed in triplicates, and the MST curves were fitted using NT analysis software to obtain the K d values.

NLRP3 = biological target: T3, NLRP3 (Homo sapiens, UniProt Q96P20); test: MST binding to NLRP3-GFP; details: Fig 6C
T3 construct: Addgene (plasmid only) 73955
T3 sequence (Q96P20 whole entry): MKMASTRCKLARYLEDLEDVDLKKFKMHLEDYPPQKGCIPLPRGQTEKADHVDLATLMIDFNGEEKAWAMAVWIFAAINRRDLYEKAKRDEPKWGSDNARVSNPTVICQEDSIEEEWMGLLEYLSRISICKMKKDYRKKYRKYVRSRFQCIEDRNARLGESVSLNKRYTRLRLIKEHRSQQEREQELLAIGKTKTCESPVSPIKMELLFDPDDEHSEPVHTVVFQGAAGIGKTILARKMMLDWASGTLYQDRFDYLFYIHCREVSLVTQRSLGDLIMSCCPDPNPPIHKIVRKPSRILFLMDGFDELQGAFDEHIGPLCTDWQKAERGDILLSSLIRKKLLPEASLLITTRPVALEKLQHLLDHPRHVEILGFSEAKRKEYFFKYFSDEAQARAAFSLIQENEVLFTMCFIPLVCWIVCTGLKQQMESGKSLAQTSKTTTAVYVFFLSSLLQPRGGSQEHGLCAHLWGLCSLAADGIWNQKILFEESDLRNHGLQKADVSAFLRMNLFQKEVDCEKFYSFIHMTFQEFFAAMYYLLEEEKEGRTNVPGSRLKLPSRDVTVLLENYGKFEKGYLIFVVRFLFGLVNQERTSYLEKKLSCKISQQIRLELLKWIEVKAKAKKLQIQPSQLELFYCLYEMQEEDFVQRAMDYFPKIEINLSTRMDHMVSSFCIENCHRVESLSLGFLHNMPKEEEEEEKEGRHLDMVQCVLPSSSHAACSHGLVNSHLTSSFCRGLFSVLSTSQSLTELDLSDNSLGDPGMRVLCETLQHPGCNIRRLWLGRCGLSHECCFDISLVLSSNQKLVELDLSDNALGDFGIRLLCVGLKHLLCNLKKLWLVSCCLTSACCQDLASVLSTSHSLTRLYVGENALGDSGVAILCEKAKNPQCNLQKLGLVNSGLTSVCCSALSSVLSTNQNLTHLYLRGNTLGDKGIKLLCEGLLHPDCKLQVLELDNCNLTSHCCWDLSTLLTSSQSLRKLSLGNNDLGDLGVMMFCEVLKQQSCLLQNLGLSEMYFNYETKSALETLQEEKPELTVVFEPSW
Procedure: as §2

- Kd (NOD1; Fig 6D, one representative experiment, read-out: Kd (NOD1/ligand)): 2090 ± 770 nM
- Kd (NOD1; Fig EV5B, purified NOD1, read-out: Kd (NOD1/ligand)): 2290 ± 1970 nM
- Kd (NOD1; Kd value of S1P interacting with NOD1, as stated in text): ~2000 nM
- Kd (NOD1; Kd(NOD1: S1P), Fig 7C, S1P alone): 1740 ± 430 nM
- Kd (NOD1; Kd(NOD1 WT: S1P), Fig 7E): 2200 ± 510 nM
- Interaction with NOD1∆LRR by MST (NOD1∆LRR): still interacted
- Direct interaction with NLRP3 by MST (NLRP3): not observed
SMILES: CCCCCCCCCCCCC/C=C/[C@@H](O)[C@@H](N)COP(=O)(O)O [S1P, sphingosine‐1‐phosphate]
- Immunoprecipitation of NOD1 and NOD2 with lipid-coated beads (NOD1 and NOD2): specifically immunoprecipitated
- Interaction between NOD1/2 and RIP2 (NOD1/2-RIP2 interaction): stimulated the interaction between NOD1/2 and RIP2
